In patent publication US10988766B2, “Compositions and methods used in diagnosing and treating colorectal cancer” (Oregon Health & Science University, priority 2017, dated 2021):

What was measured:
Type in all cases: cell-based, human
[1] = system: CAB39, EMSY, EREG, and MEX3C mRNA in HCT-116 cells; test: qRT-PCR of the miR-451 targets after transfection; conditions: 24 h after transfection
Experimental: FIG. 4C is a plot of the results of qRT-PCR of the miR-451 targets in HCT-116 cells at 24 h after transfection.
This list was narrowed by filtering genes with a known role in human colorectal cancer and/or cellular response to ionizing radiation. […] A miR-Trap assay was used to pull down mRNAs enriched at the RNA induced silencing complex in cells transfected with miR-451a.

HCT-116 cells [2] = test: Colony formation assay (surviving fraction); conditions: miR-451a mimic vs control mimic, 0, 2 or 5 Gy, colonies counted 12-14 days after plating
Experimental: Cells were transfected with miR-451a-5p mimic or control mimic for 16 hours. Then cells were plated (100 or 200 cells for 0Gy, 200 or 400 cells/well for 2GY and 400 or 800 cells per well for 5Gy) in triplicate in a 6-well plate. Cells were irradiated 4 hours after plating, 0Gy, 2Gy or 5Gy. Two weeks after plating, cells were fixed and stained with crystal violet and colonies were counted. Surviving fraction was calculated based on the colony numbers normalized to the plating efficiency.

HCT-116 cells [3] = test: Proliferation in 2D culture (Cell Titer-Glo) after transfection and radiation
Description: HCT-116 cells were reverse transfected with miR-451a-5p mimics, inhibitors and their respective controls were purchased from Life Technologies using Lipofectamine RNAiMAX (Invitrogen) according to manufacturer's instructions.
Cells or mice were irradiated on a Shepherd^137 cesium irradiator at a rate of […] 1.34 cGy min. In tumour-targeted radiation experiments, mice were restrained in a lead shield (Brain Tree Scientific) to minimize exposure to the non-tumour areas.
(§1) HCT-116 cells were transfected in a 6 well plate with miR-451a-5p mimic or inhibitor, and the corresponding controls from Life Technologies as previously described. Cells were transferred to a 96 well plate 16 hours post-transfection (1000 cells/well). At 24 hours post-transfection the HCT-116 cells were irradiated with 0, 2, or 5 Gy. Cell Titer-Glo and Caspase 3/7 Glo were analyzed at 48 hours and 96 hours post-irradiation, according to manufacturer's instructions.

[4] = system: CAB39, EMSY, EREG, and MEX3C mRNAs; test: miR-TRAP / RISC Trap assay; conditions: HCT116 co-transfected with mutant RISC complex plasmid and miR-451a mimic or control mimic
Description: Fold enrichment over pre-IP mRNAs is depicted. Results are representative of two independent experiments.
HCT116 cells were co-transfected with a plasmid coding for a flag-tagged dominant negative […] mutant (Clontech kit #632016) along with a control mimic or miR-451a-5p mimic according to manufacturer instructions. Twenty-four hours later the RNA protein complexes were crosslinked and the RISC complex was immunoprecipitated using an anti-FLAG antibody and RNA was isolated for quantitative real-time PCR of target genes. The fold enrichment was calculated using pre and post IP controls as well as normalization to the control mimic pull-downs.

HCT116 = test: Proliferation after radiation and 5-FU treatment; conditions: miR-451a mimic vs control mimic, radiation and 5-FU (5 μM), 48 and 96 hours
Experimental: FIG. 6A is a graph of HCT116 transfected with a miR-451a mimic or a control mimic. Proliferation was analyzed 48 hours after radiation and 5-FU (5 μM) treatment. Mean of triplicate wells is plotted. * indicates P<0.01 on a two-tailed Student's T-test.
FIG. 6B is a graph of HCT116 transfected with a miR-451a mimic or a control mimic. Proliferation was analyzed 96 hours after radiation and 5-FU (5 μM) treatment. Mean of triplicate wells is plotted. * indicates P<0.01 on a two-tailed Student's T-test
as §1

HCT-116 cells [5] = test: Tumorsphere (3D culture) proliferation assay after transfection and radiation; conditions: miR-451a mimic vs control mimic, 48 hours after radiation
Experimental: FIG. 2B is a graph showing results where HCT116 were transfected with a miR-451a mimic or a control mimic. Proliferation was analyzed 48 hours after radiation in 3D cultures with the indicated doses. Bars depict mean±s.e.m. of triplicate wells. ** indicates P<0.01 on a two-tailed Student's T-test.
FIG. 3B is a graph showing results where HCT116 were transfected with a miR-451a inhibitor (anti-miR-451a) or a control anti-miR. Proliferation was analyzed 48 hours after radiation in 3D culture with the indicated doses. Bars depict mean±s.e.m. of triplicate wells. ** indicates P<0.01 on a two-tailed Student's T-test.
as §1

[6] = system: HCT-116 cells reverse transfected with anti-miR-451a; test: Chemosensitivity model: cell proliferation (CellTiter-Glo) with SHP2 and RAF inhibitors; conditions: 3.5 uM SHP2-inhibitor, 20 uM RAF-inhibitor, alone or combined; treated 24 hours post transfection
Experimental: HCT-116 cells (American Type Culture Collection) were cultured in McCoy's media supplemented with 10% fetal bovine serum (FBS) and antibiotics. Cells were tested and found negative for mycoplasma contamination before use in the assays described. Cells were reverse transfected with miR-451a-5p mimics or inhibitors with their respective controls (purchased from Life Technologies), using Lipofectamine® RNAiMAX (Invitrogen) per manufacturer's instructions. We report highly efficient transfection (>90%) of mimics and inhibitors in cell culture, as measured by fluorescent miR control. Cells were irradiated in a Shepherd^137 cesium irradiator at a rate of 1.34 cGy min. HCT-116 cells were initially transfected in a six-well plate, then transferred to a 96-well plate 16 hours post-transfection (2000 cells/well). In the chemosensitivity model, HCT-116 cells were treated with SHP2 inhibitor SHP099, 6-([…]-4-methyl-1-piperidinyl)-3-(2,3-dichlorophenyl)-2-pyrazinamine (Cayman Chemical, cat#20000) (3.5 μM), and RAF inhibitor (selective paradox breaker; SelleckChem, PLX7904, N′-[3-[[5-(2-cyclopropyl-5-pyrimidinyl)-1H-pyrrolo[2,3-b]pyridin-3-yl]carbonyl]-2,4-difluorophenyl]-N-ethyl-N-methyl-sulfamide, cat#57964) (20 μM) at 24 hours post transfection. Cell proliferation was analyzed at 48 hours post irradiation, using CellTiter-Glo®, per the manufacturer's instructions.

Molecule	target gene expression at the mRNA level [1]	surviving fraction colony formation (HCT-116 cells [2])	proliferation in a 2D culture (HCT-116 cells [3]; miR-451a mimic vs control mimic, 48 hours after radiation)	effect in combination with radiation (HCT-116 cells [3]; on the phenotypes (proliferation, tumorsphere, colony formation), especially at the 5 Gy dose)	enrichment of target mRNAs at the RNA induced silencing complex [4]	responses to 5-FU (proliferation) (HCT116)	proliferation in a tumorsphere assay (HCT-116 cells [5])	cell proliferation [6]
miR-451a: miR-451a-5p mimic purchased from Life Technologies, transfected into HCT-116 cells; tumor suppressor miRNA (AAACCGUUACCAUUACUGAGUU; listed as RNA, chemistry not given here; listed as Homo sapiens)	significant downregulation of all four target genes	decreased proliferation	decreased proliferation	slight additive effect with radiation	enriched at the RISC	enhanced the responses to 5-FU	decreased proliferation	
CC1(N)CCN(c2cnc(-c3cccc(Cl)c3Cl)c(N)n2)CC1 [SHP2-inhibitor, 6-(4-diamino-4-methyl-1-piperidinyl)-3-(2,3-dichlorophenyl)-2-pyrazinamine]								significant decrease in cell proliferation
CCN(C)S(=O)(=O)Nc1ccc(F)c(C(=O)c2c[nH]c3ncc(-c4cnc(C5CC5)nc4)cc23)c1F [RAF-inhibitor, N′-[3-[[5-(2-cyclopropyl-5-pyrimidinyl)-1H-pyrrolo[2,3-b]pyridin-3-yl]carbonyl]-2,4-difluorophenyl]-N-ethyl-N-methyl-sulfamide]								significant decrease in cell proliferation
